According to paper PMC7558399, “In Vitro Selective Growth-Inhibitory Activities of Phytochemicals, Synthetic Phytochemical Analogs, and Antibiotics against Diarrheagenic/Probiotic Bacteria and Cancer/Normal Intestinal Cells” (Pharmaceuticals, 2020):
Values after ≈ are worked out from the molar mass of the structure shown. Read-outs that look alike come from different tables or passages of the source.

What was measured:
Assay type in all cases: cell-based
[1] = system: Bacillus cereus (ATCC 14579); assay: Broth microdilution MIC, B. cereus; details: median/mode, read-out: MIC
[2] = system: Clostridium difficile (DSMZ 12056); assay: microbe, parasite or virus in culture; details: Clostridioides difficile, DSMZ12056, Clostridium difficile, read-out: MIC
[3] = system: Clostridium perfringens (DSMZ 11778); assay: microbe, parasite or virus in culture; details: DSMZ11778
[4] = system: Enterococcus faecalis (ATCC 29212); assay: Broth microdilution MIC, E. faecalis; details: ATCC29212, growth inhibited by ≥80%, read-out: MIC
[5] = system: Escherichia coli (ATCC 25922); assay: Broth microdilution MIC, E. coli; details: ATCC25922, growth inhibited by ≥80%, read-out: MIC
[6] = system: E. coli 0175:H7 (NCTC 12900); assay: microbe, parasite or virus in culture; details: Escherichia coli, NCTC12900
[7] = system: Listeria monocytogenes (ATCC 7644); assay: Broth microdilution MIC, L. monocytogenes; details: ATCC7644, growth inhibited by ≥80%, read-out: MIC
[8] = system: Shigella flexneri (ATCC 12022); assay: microbe, parasite or virus in culture; details: ATCC12022
[9] = system: Salmonella enterica ssp. enterica serovar Enteritidis (ATCC 13076); assay: Broth microdilution MIC, Salmonella Enteritidis; details: Salmonella Enteritidis, growth inhibited by ≥80%, read-out: MIC
[10] = system: S. enterica ssp. enterica serovar Typhimurium (ATCC 14028); assay: Broth microdilution MIC, Salmonella Typhimurium; details: Salmonella Typhimurium, growth inhibited by ≥80%, read-out: MIC
[11] = system: Vibrio parahaemolyticus (ATCC 17802); assay: Broth microdilution MIC, V. parahaemolyticus; details: ATCC17802, growth inhibited by ≥80%, read-out: MIC
[12] = system: Yersinia enterocolitica (ATCC 9610); assay: Broth microdilution MIC, Y. enterocolitica; details: ATCC9610, growth inhibited by ≥80%, read-out: MIC
[13] = system: diarrheagenic bacteria (12 strains); assay: organism not typed
[14] = system: Bacteroides fragilis (ATCC 25285); assay: Broth microdilution MIC, B. fragilis
[15] = system: Bifidobacterium adolescentis (DSMZ 20087); assay: Broth microdilution MIC, B. adolescentis; details: DSMZ20087, growth inhibited by ≥80%, read-out: MIC
[16] = system: Bifidobacterium animalis spp. lactis (DSMZ 10140); assay: Broth microdilution MIC, B. animalis spp. lactis; details: DSMZ10140; Bifidobacterium animalis spp. lactis; growth inhibited by ≥80%; read-out: MIC
[17] = system: Bifidobacterium bifidum (ATCC 29521); assay: Broth microdilution MIC, B. bifidum; details: ATCC29521, growth inhibited by ≥80%, read-out: MIC
[18] = system: Bifidobacterium breve (ATCC 15700); assay: Broth microdilution MIC, B. breve; details: ATCC15700, growth inhibited by ≥80%, read-out: MIC
[19] = system: Bifidobacterium longum ssp. longum (DSMZ 20219); assay: Broth microdilution MIC, B. longum ssp. longum; details: DSMZ20219; Bifidobacterium longum ssp. longum; growth inhibited by ≥80%; read-out: MIC
[20] = system: Lactobacillus casei (DSMZ 20011); assay: Broth microdilution MIC, L. casei; details: Lacticaseibacillus casei, DSMZ20011; Lactobacillus casei; growth inhibited by ≥80%; read-out: MIC
[21] = system: Lactobacillus reuteri (CCM 3625); assay: Broth microdilution MIC, L. reuteri; details: Limosilactobacillus reuteri, CCM3625; Lactobacillus reuteri; growth inhibited by ≥80%; read-out: MIC
[22] = system: Lactobacillus rhamnosus (CCM 7091); assay: Broth microdilution MIC, L. rhamnosus; details: Lacticaseibacillus rhamnosus, CCM7091; Lactobacillus rhamnosus; growth inhibited by ≥80%; read-out: MIC
[23] = system: probiotic bacteria (9 strains); assay: Broth microdilution MIC, probiotic bacteria as a group (mean or range over strains)
[24] = system: HT29 (ATCC HTB 38) intestinal cancer cells; assay: MTT cytotoxicity assay, HT29; details: Homo sapiens, HT-29, HT29, MTT, 72 h; for IC50: read-out: IC50 ± SD; for IC80: read-out: IC80 ± SD (80% inhibitory concentration of proliferation)
[25] = system: Caco-2 (ATCC HTB 37) intestinal cancer cells; assay: MTT cytotoxicity assay, Caco-2; details: Homo sapiens, Caco-2, MTT, 72 h; for IC50: read-out: IC50 ± SD; for IC80: read-out: IC80 ± SD (80% inhibitory concentration of proliferation)
[26] = system: intestinal cancer cells (HT29 and Caco-2); assay: MTT cytotoxicity assay, mean for intestinal cancer cells; details: for IC50 / x¯ -CC ± SD: mean IC50 for intestinal cancer cells: mean of HT29 and Caco-2, >512 replaced with 1024; for IC50: read-out: x¯ -CC ± SD: mean IC50 for intestinal cancer cells; for IC80: read-out: x¯ -CC ± SD: mean IC80 for intestinal cancer cells
[27] = system: FHs 74 Int (ATCC CCL 241) intestinal normal cells; assay: MTT cytotoxicity assay, FHs 74 Int; details: FHs 74 Int (intestinal normal cells), MTT, 72 h; for IC50 / IC80: FHs74Int; for IC50: read-out: IC50 ± SD; for IC80: read-out: IC80 ± SD (80% inhibitory concentration of proliferation)
[28] = mean of 12 strains, >512 replaced with 1024, read-out: x¯ -DB ± SD: mean MIC for diarrheagenic bacteria
[29] = mean of 9 strains, >512 replaced with 1024, read-out: x¯ -PB ± SD: mean MIC for probiotic bacteria
[30] = ATCC14579, growth inhibited by ≥80%
[31] = ATCC25285, growth inhibited by ≥80%, read-out: MIC

## CO/N=C(\C(=O)N[C@@H]1C(=O)N2C(C(=O)O)=C(CSc3nc(=O)c(=O)[nH]n3C)CS[C@H]12)c1csc(N)n1 [CF, ceftriaxone sodium]
[1]; ATCC14579, […]
  MIC: 128 µg/mL
[2]; […]
  MIC: 64 µg/mL
[3]
  MIC: 4 µg/mL
[4]
  MIC: 512 µg/mL
[5]
  MIC: 0.062 µg/mL
[6]
  MIC: 0.5 µg/mL
[7]
  MIC: 32 µg/mL
[8]
  MIC: 0.5 µg/mL
[9]
  MIC: 0.25 µg/mL
[10]
  MIC: 0.25 µg/mL
[11]
  MIC: 0.125 µg/mL
[12]
  MIC: 0.25 µg/mL
[13]; all gram-negative diarrheagenic bacteria, range over strains, read-out: MICs
  MIC: 0.062 to 0.5 µg/mL
[13]; gram-positive pathogens, range over strains, read-out: MICs
  MIC: 4 to 512 µg/mL
[13]; [28]
  MIC: 61.8 ± 141 µg/mL
[14]; ATCC25285
  MIC: 128 µg/mL
[15]
  MIC: 1 µg/mL
[16]
  MIC: 2 µg/mL
[17]
  MIC: 4 µg/mL
[18]
  MIC: 32 µg/mL
[19]
  MIC: 8 µg/mL
[20]
  MIC: 32 µg/mL
[21]
  MIC: 0.5 µg/mL
[22]
  MIC: 32 µg/mL
[23]; Bifidobacterium breve and Bifidobacterium longum ssp. longum, read-out: MICs
  MIC: 8 to 32 µg/mL
[23]; lactobacilli, range over strains, read-out: MICs
  MIC: 0.5 to 32 µg/mL
[23]; [29]
  MIC: 26.6 ± 38 µg/mL
[23]; remaining bifidobacteria (other than B. breve and B. longum ssp. longum), read-out: MICs
  MIC: 1 to 4 µg/mL
[24]
  IC50: > 512 µg/mL
  IC80: > 512 µg/mL
[25]
  IC50: > 512 µg/mL
  IC80: > 512 µg/mL
[26]
  IC50: > 512 µg/mL
  IC80: > 512 µg/mL
[27]
  IC50 ± SD: - (Not active (MIC/IC50/80 > 512 μg/mL, the value 1024 μg/mL was used for average calculation))
  IC80 ± SD (80% inhibitory concentration of proliferation): - (Not active (MIC/IC50/80 > 512 μg/mL, the value 1024 μg/mL was used for average calculation))
  IC50: > 512 µg/mL
  IC80: > 512 µg/mL

## Oc1c(Cl)cc(Cl)c2cccnc12 [CLX, 5,7-dichloroquinolin-8-ol]
[1]; [30]
  MIC: 8 µg/mL (≈ 37.4 µM)
[2]; growth inhibited by ≥80%
  MIC: 8 µg/mL (≈ 37.4 µM)
[3]
  MIC: 16 µg/mL (≈ 74.7 µM)
[4]
  MIC: 16 µg/mL (≈ 74.7 µM)
[5]
  MIC: 16 µg/mL (≈ 74.7 µM)
[6]
  MIC: 64 µg/mL (≈ 299 µM)
[7]
  MIC: 32 µg/mL (≈ 149 µM)
[8]
  MIC: 16 µg/mL (≈ 74.7 µM)
[9]
  MIC: 64 µg/mL (≈ 299 µM)
[10]
  MIC: 16 µg/mL (≈ 74.7 µM)
[11]
  MIC: 16 µg/mL (≈ 74.7 µM)
[12]
  MIC: 16 µg/mL (≈ 74.7 µM)
[13]; [28]
  MIC: 24 ± 19 µg/mL (≈ 112 µM)
[14]; [31]
  MIC: 32 µg/mL (≈ 149 µM)
[15]
  MIC: 128 µg/mL (≈ 598 µM)
[16]
  MIC: 512 µg/mL (≈ 2390 µM)
[17]
  MIC: > 512 µg/mL
[18]
  MIC: 64 µg/mL (≈ 299 µM)
[19]
  MIC: 64 µg/mL (≈ 299 µM)
[20]
  MIC: 128 µg/mL (≈ 598 µM)
[21]
  MIC: 128 µg/mL (≈ 598 µM)
[22]
  MIC: 128 µg/mL (≈ 598 µM)
[23]; [29]
  MIC: 245 ± 306 µg/mL (≈ 1150 µM)
[24]
  IC50: 3.7 ± 0.3 µg/mL (≈ 17.3 µM)
  IC80: 5 ± 0.7 µg/mL (≈ 23.4 µM)
[25]
  IC50: 1.3 ± 0.04 µg/mL (≈ 6.07 µM)
  IC80: 5.9 ± 0.7 µg/mL (≈ 27.6 µM)
[26]
  IC50: 2.5 ± 1.2 µg/mL (≈ 11.7 µM)
  IC80: 5.4 ± 0.5 µg/mL (≈ 25.2 µM)
[27]
  IC50: 0.5 ± 0.02 µg/mL (≈ 2.34 µM)
  IC80: 2 ± 0.1 µg/mL (≈ 9.34 µM)

## O=C(O)c1ccccc1O [SA, salicylic acid]
[1]; [30]
  MIC: > 512 µg/mL
[2]; […]
  MIC: 256 µg/mL (≈ 1850 µM)
[3]
  MIC: > 512 µg/mL
[4]
  MIC: > 512 µg/mL
[5]
  MIC: > 512 µg/mL
[6]
  MIC: > 512 µg/mL
[7]
  MIC: > 512 µg/mL
[8]
  MIC: > 512 µg/mL
[9]
  MIC: > 512 µg/mL
[10]
  MIC: > 512 µg/mL
[11]
  MIC: > 512 µg/mL
[12]
  MIC: > 512 µg/mL
[13]; [28]
  MIC: 960 ± 212 µg/mL (≈ 6950 µM)
[14]; [31]
  MIC: 128 µg/mL (≈ 927 µM)
[15]
  MIC: > 512 µg/mL
[16]
  MIC: 128 µg/mL (≈ 927 µM)
[17]
  MIC: > 512 µg/mL
[18]
  MIC: > 512 µg/mL
[19]
  MIC: 512 µg/mL (≈ 3710 µM)
[20]
  MIC: 512 µg/mL (≈ 3710 µM)
[21]
  MIC: 512 µg/mL (≈ 3710 µM)
[22]
  MIC: 512 µg/mL (≈ 3710 µM)
[23]; [29]
  MIC: 597 ± 336 µg/mL (≈ 4320 µM)
[24]
  IC50: > 512 µg/mL
  IC80: > 512 µg/mL
[25]
  IC50: > 512 µg/mL
  IC80: > 512 µg/mL
[26]
  x¯ -CC ± SD: mean IC50 for intestinal cancer cells: - (Not active (MIC/IC50/80 > 512 μg/mL, the value 1024 μg/mL was used for average calculation))
  IC80: > 512 µg/mL
[26]; listed as salicylic acid
  x¯ -CC ± SD: mean IC50 for intestinal cancer cells: ≥ 253.6 ± 208 µg/mL
[27]
  IC50: 73.2 ± 4.6 µg/mL (≈ 530 µM)
  IC80: 207 ± 69 µg/mL (≈ 1500 µM)
